Consider five molecules from patent US5804553A, “Prophenins - antibiotic peptides” (University of California, priority 1994, dated 1998).

Where no end group is shown, it is not given here. A value given as a limit tells only on which side of the number the result lay.

The subject of assay [1] is C. albicans, strain 820. Nature of the assay: radial diffusion assay in agarose gels. Format: cell-based. The following applies: for inhibitory activity (FIG. 4c): at reasonable concentrations; for minimal microbicidal concentration: Table 2. The method, then: (§1) Aliquots (66 μl) of each fraction were dried by vacuum centrifugation, and resuspended in approximately 6.6 μl of 0.01% acetic acid. Five μl samples of this concentrate were tested for antimicrobial activity against E. coli ML-35, L. monocytogenes, Strain EGD and C. albicans, strain 820 by radial diffusion and gel overlay techniques (Lehrer, R. I. et al. J Immunol Meth (1991) 137:167-173). Active fractions were further examined by acid-urea PAGE and SDS-PAGE. Prophenins emerged from the P10 column in fractions 38-43 (39.6 ml total volume), which contained a total of 18 mg protein by BCA analysis.
(§2) The radial diffusion assay in agarose gels as described above was also used to test the activity of the purified prophenins. Samples of 5 μL each were added to 3 mm wells in thin gels composed of 10 mM sodium phosphate, 30 mg/ml trypticase soy broth powder in 1% agarose and containing approximately 4×10^5 CFU/ml of mid-log phase organisms. After allowing 3 hours for the samples to diffuse into the underlayer gel, a nutrient-rich overlay gel was poured and the plates were incubated for 24 hours at 37° C. to allow surviving organisms to form microcolonies. The diameters of the clear zones were measured and expressed in "units" (10 units=1 mm) as. described previously.

In assay [2] the test system is E. coli ML-35. Description: radial diffusion assay in agarose gels. Format: cell-based. Particulars: for minimal microbicidal concentration: E. coli, Table 2; for inhibitory activity (FIG. 4a): E. coli ML-35. The method, then:
as §1, §2

Assay [3] has as its system L. monocytogenes, Strain EGD. Nature of the assay: radial diffusion assay in agarose gels. Format: cell-based. Particulars: for minimal microbicidal concentration: Table 2. The method, then:
as §1, §2

Assay [4] relates to lipid polysaccharide (LPS) of the Gram-negative bacterium E. coli strain 0.55B5. Nature of the assay: Limulus amebocyte lysate (LAL) test for endotoxin binding. Format: biochemical. The following applies: for concentration giving complete inhibition of LAL gelation / LAL gel formation: LPS 0.05 endotoxin unit/ml; for LAL gel formation: Table 3; for concentration giving complete inhibition of LAL gelation, molar: converted from μg/ml. More on the design: key to LAL gel formation: ++ signifies a solid gel (no inhibition); + indicates increased viscosity without solid gel formation (partial inhibition); 0 indicates that gelation was absent (complete inhibition). The method, then: The prophenins of the invention were tested for their ability to bind the lipid polysaccharide (LPS) of the Gram-negative bacterium E. coli strain 0.55B5. The assay was the Limulus amebocyte lysate (LAL) test for endotoxins conducted in the presence and absence of the test compounds. The test was conducted using the procedure described in Sigma Technical Bulletin No. 210 as revised in December 1992 and published by Sigma Chemical Company, St. Louis, Mo.
The LAL test is based on the ability of LPS to effect gelation in the commercial reagent E-TOXATE ™ which is prepared from the lysate of circulating amebocytes of the Horseshoe Crab Limulus polyphemus. As described in the technical bulletin, when exposed to minute quantities of LPS, the lysate increases in opacity as well as viscosity and may gel or clot depending on the concentration of endotoxin. The technical bulletin goes on to speculate that the mechanism appears analogous to the clotting of mammalian blood and involves the steps of activation of a trypsin-like preclotting enzymes by the LPS in the presence of calcium ion, followed by enzymic modifications of a "coagulogen" by proteolysis to produce a clottable protein. These steps are believed tied to the biologically active or "pyrogenic" portion of the molecule. It has been shown previously that detoxified LPS (or endotoxin) gives a negative LAL test.
Polymyxin B is a cyclic 1.2 kD acylated […] obtained from Bacillus polymyxa. Polymyxin B was used as a positive control since it is known to inhibit LPS-induced Limulus hemocyte lysate clotting.
In the assay, the amounts of prophenin-1 and polymyxin B (78% free polymyxin, Sigma) were preincubated in a final volume of 0.2 ml and the test mixtures contained LPS at a final concentration of 0.05 endotoxin unit/ml and E-TOXATE™ at the same concentration. The test compounds were incubated together with the LPS for 15 minutes before the E-TOXATE™ was added to a final volume (after E-TOXATE™ addition) of 0.2 ml. The tubes were then incubated for 60 minutes at 37° C. and examined for the formation of a gel.

Consider “HNP-1: human defensin (HNP-1), used as control”, for which, in assay [1], the “inhibitory activity (FIG. 4c)” value is recorded as “substantially noninhibitory”.

Turning to “HNP-2: control peptide as headed in Table 2; the text names human defensin HNP-1 (CYCRIPACIAGERRYGTCIYQGRLWAFCC; ends and bridges not checked; cysteine pairing not given here; UniProt P59665 66-94, looked up)”, the minimal microbicidal concentration in assay [1] is > 150 µg/mL; in assay [2] it was 80.0 µg/mL; in assay [3], 12.0 µg/mL.

In the case of “PG-3: protegrin-3 (PG3), used as control (RGGGLCYCRRRFCVCVGR; ends and bridges not checked; cysteine pairing not given here; UniProt P32196 131-148, looked up)”, in assay [1], the minimal microbicidal concentration is 6.9 µg/mL and the “inhibitory activity (FIG. 4c)” value is “successful antifungals”. For the same molecule, in assay [2], the “inhibitory activity (FIG. 4a)” value is recorded as “more inhibitory than HNP-1” and the minimal microbicidal concentration came to 8.6 µg/mL. Also, the minimal microbicidal concentration in assay [3] came out at 9.0 µg/mL.

Polymyxin B: in assay [4], the “concentration giving complete inhibition of LAL gelation” value stood at 5 µg/mL. The LAL gel formation entry was “++” in assay [4] (peptide 0.16 μg/ml); “++” in assay [4] (peptide 0.31 μg/ml); “++” in assay [4] (peptide 0.63 μg/ml); “++” in assay [4] (peptide 1.25 μg/ml); “+” in assay [4] (peptide 2.5 μg/ml); 0 in assay [4] (peptide 5.0 μg/ml). Also, the LAL gel formation in assay [4] (peptide 10.0 μg/ml) came out at 0. Besides, the “concentration giving complete inhibition of LAL gelation, molar” value in assay [4] is given as “≈ 4.2 μM”.

B1: Prophenin-1: 79-residue proline-rich antimicrobial peptide purified from porcine leukocytes; sequence SEQ ID NO:1 (b87-b94, FIG. 3) (peptide)
chain: AFPPPNVPGPRFPPPNFPGPRFPPPNFPGPRFPPPNFPGPRFPPPNFPGPPFPPPIFPGPWFPPPPPFRPPPFGPPRFP
In the case of B1, the “concentration giving complete inhibition of LAL gelation” value in assay [4] amounted to 0.625 µg/mL. Moreover, the LAL gel formation entry in assay [4] (peptide 0.16 μg/ml) was “++”; in assay [4] (peptide 0.31 μg/ml), “++”; in assay [4] (peptide 0.63 μg/ml), 0; in assay [4] (peptide 1.25 μg/ml), 0; in assay [4] (peptide 2.5 μg/ml) it was 0; in assay [4] (peptide 5.0 μg/ml), 0. For the same molecule, the “concentration giving complete inhibition of LAL gelation, molar” value in assay [4] is on record as “≈ 72 nM”. Moreover, the “effective concentration in inhibiting LPS” value in assay [4] (intact molecule) lay in the range of 35 to 70 nM. Moreover, the figures for the minimal microbicidal concentration in assay [1], in assay [2] and in assay [3] were > 150 µg/mL, 15.2 µg/mL and 122.2 µg/mL, respectively. For the same molecule, in assay [1], the “inhibitory activity (FIG. 4c)” value was “substantially noninhibitory”. Also, the “inhibitory activity (FIG. 4a)” value in assay [2] was “comparable in inhibitory activity to PG3 and NP1”. Besides, the “specificity for Gram-negative bacteria” value in assay [2] (from Table 2, E. coli versus L. monocytogenes and C. albicans) is “highly specific for Gram-negative bacteria”. In addition, in assay [3], the “concentrations at which some activity was shown (FIG. 4b)” value was “above 100 μg/ml”. Further, in assay [3] (versus the other three antibiotic peptides), the “inhibitory activity (FIG. 4b)” value is “substantially less inhibitory”.
